The source of these data is patent US20220409649A1, “a-GLUCOSIDASE INHIBITOR, INVERTASE INHIBITOR, AND SUGAR ABSORPTION INHIBITOR” (Kinki University, priority 2019, published 2022).

Assay [1] in a line: Oral glucose tolerance testing using sucrose, normal rats. The format is in vivo, normal Wistar type rats. Particulars: oral co-administration with sucrose 1.5 g/kg, FIG. 7. As for the experimental part:
(§1) Glucose tolerance testing of normal Wistar type rats and OLETF rats with diabetes was performed using the compound (I). After fasted for 14 hours, glucose was loaded, and blood taken from tail veins of the rats was subjected to various tests.
(§2) An aqueous solution containing […] of sucrose (hereinafter, also referred to as “A Liquid”) and an aqueous solution containing […] of sucrose and 0.085 mg/ml of the compound (I) (hereinafter, also referred to as “B Liquid”) were prepared. Six normal 7-week-old rats (male) were divided into two groups. In one group, the A liquid was orally administered such that an amount of sucrose was 1.5 g/kg based on the rat body weight. In the other group, the B liquid was orally administered such that the amount of sucrose was 1.5 g/kg based on the rat body weight. Blood was taken from the tail veins of the rats before the administration and in 30 minutes, 60 minutes, 90 minutes, and 120 minutes after the administration, and then plasma was obtained by centrifugation. For the obtained plasma, glucose and insulin were quantified.

For assay [2], the target named is T1, sucrase (sucrose as substrate) (Rattus norvegicus, UniProt P23739).
T1 construct: the supernatant was used as a purified enzyme; from tissue; host or cells: rat intestine (acetone powder, supernatant of homogenate)
T1 sequence (P23739 1-1013 limits assumed): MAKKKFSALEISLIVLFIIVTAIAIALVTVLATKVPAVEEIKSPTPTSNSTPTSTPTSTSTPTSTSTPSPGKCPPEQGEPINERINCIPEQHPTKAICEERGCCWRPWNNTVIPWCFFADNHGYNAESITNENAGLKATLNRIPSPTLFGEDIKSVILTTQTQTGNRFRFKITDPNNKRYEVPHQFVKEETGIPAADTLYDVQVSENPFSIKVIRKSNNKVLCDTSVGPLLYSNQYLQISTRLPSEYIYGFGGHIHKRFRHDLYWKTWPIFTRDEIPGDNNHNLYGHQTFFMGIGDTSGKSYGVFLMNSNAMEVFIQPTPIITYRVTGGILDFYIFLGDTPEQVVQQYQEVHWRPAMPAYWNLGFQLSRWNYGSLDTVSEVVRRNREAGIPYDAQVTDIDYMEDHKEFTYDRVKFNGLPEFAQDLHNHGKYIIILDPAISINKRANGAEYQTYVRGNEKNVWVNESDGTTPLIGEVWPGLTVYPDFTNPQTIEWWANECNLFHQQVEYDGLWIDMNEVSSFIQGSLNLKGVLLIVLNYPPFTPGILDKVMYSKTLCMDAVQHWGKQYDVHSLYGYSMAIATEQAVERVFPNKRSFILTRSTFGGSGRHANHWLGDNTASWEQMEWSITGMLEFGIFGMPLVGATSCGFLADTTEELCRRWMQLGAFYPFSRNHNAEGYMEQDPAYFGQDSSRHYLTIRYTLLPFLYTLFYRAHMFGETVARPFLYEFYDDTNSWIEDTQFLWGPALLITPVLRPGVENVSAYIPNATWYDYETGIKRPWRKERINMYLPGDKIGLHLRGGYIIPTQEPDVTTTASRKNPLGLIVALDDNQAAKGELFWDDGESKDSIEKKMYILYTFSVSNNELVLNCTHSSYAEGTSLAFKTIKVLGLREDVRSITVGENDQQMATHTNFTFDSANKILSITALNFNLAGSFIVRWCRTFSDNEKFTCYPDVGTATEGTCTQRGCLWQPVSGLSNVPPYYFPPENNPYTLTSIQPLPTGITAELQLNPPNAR
T1 sequence (P23739 1014-1841 limits assumed): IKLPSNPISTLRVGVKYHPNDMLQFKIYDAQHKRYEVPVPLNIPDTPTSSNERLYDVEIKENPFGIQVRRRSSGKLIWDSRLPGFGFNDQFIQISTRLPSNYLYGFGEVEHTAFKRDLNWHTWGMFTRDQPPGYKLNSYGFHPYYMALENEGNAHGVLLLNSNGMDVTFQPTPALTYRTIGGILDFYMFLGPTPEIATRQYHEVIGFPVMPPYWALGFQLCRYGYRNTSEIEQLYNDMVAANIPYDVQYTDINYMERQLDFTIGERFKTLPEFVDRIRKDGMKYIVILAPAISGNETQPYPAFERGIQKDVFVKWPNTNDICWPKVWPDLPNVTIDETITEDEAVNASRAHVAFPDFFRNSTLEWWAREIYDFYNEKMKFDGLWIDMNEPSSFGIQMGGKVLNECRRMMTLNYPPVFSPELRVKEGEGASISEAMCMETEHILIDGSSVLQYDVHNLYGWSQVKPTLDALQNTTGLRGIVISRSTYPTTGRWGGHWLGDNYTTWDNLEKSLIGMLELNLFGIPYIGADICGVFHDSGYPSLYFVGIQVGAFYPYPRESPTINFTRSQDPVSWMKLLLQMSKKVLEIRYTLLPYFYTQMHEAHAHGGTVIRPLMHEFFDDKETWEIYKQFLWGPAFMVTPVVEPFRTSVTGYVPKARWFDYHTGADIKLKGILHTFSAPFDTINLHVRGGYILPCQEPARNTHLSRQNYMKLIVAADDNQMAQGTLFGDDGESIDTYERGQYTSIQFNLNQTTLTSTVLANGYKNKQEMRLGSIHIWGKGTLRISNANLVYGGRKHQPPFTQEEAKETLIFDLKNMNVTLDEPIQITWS
Nature of the assay: Screening of enzyme inhibition, rat intestinal acetone powder crude enzyme, sucrose as substrate. The format is biochemical. As to conditions: 10 μL inhibitor solution (3.4 mg/mL diluted 100 times), five hours. The procedure: (§3) As a crude enzyme mixture, 50 mg of rat intestinal acetone powder was added to 450 μL of 50 mmol/L phosphate buffer solution (pH 6.0), the mixture was stirred for 30 seconds, and then homogenized. Thereafter, the mixture was centrifuged (10000 rpm, 4° C., 20 minutes), and the supernatant was used as a purified enzyme (50 mg/450 μL). Sucrose and two types of glucose disaccharides (maltose and isomaltose) having different bonds were used as substrates. 3.4 mg of each of the two types of substrates was dissolved in 100 μL of phosphate buffer solution, and each solution was used as a substrate solution. A solution obtained by dissolving 3.4 mg of the compound (I) as a competitive inhibitor in 1 mL of phosphate buffer solution and diluting 100 times, was used as an inhibitor solution. 100 μL of the substrate solution and 10 μL of the inhibitor solution were mixed, and pre-incubation was performed for five minutes. Then, 90 μL of an enzyme solution was added to start incubation. Five hours later, 10 μL of the reaction solution was heated in a water bath for 10 minutes to stop the reaction, followed by the PMP derivatization, and then the capillary electrophoresis. An enzyme reaction solution under the same conditions without the inhibitor was used as a blank. The inhibition rate was calculated for each substrate using the same equation as that in the invertase inhibition analysis.

Assay [3] relates to maltase (maltose as substrate). Nature of the assay: Screening of enzyme inhibition, rat intestinal acetone powder crude enzyme, maltose as substrate. As to conditions: 10 μL inhibitor solution (3.4 mg/mL diluted 100 times), five hours. The assay is classed as biochemical. As for the experimental part: as §3
In assay [4] the target is invertase (Saccharomyces cerevisiae, UniProt P00724). Nature of the assay: Invertase inhibition analysis by compound (I). The assay is classed as biochemical. The procedure: For invertase inhibition analysis, 100 μg of sucrose as a substrate and 1 μg, 10 μg, or 100 μg of the compound (I) being the invertase inhibitor were added to 50 μL of 100 mmol/L acetate buffer solution, and pre-incubation was performed at 37° C. for five minutes. Thereafter, 50 μL of 0.2 U/mL invertase solution was added, and incubation was performed for 15 minutes. Thereafter, 10 μL of the reaction mixture was heated in a water bath to inactivate the enzyme and evaporated and dried, and the PMP derivatization was performed. A substance subjected to the enzyme reaction under the same conditions without adding the inhibitor was used as a blank. In each sample, the concentration required for the compound (I) to inhibit 50% of the enzyme was defined as IC50. An inhibition rate by the compound (I) was calculated using a following equation.
Chain of invertase (P00724 20-532): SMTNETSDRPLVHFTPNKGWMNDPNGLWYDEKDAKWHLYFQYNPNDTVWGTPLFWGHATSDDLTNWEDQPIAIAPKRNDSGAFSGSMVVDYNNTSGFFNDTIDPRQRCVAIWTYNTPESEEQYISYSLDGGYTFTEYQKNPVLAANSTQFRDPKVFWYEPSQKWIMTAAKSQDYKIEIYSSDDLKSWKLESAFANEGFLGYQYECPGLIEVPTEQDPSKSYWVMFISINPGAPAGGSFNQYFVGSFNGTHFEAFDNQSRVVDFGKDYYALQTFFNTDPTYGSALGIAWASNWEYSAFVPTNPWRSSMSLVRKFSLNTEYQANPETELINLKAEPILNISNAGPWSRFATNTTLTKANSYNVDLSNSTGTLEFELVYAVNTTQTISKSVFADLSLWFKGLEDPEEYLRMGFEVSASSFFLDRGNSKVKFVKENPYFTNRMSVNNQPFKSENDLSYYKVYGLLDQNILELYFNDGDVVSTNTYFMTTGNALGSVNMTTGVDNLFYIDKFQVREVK
Inhibition rate (%)=[D1−(D2−D3)/1]×100 (Equation 1)
D1: Peak area of glucose in blank sample
D2: Peak area of glucose in each sample after enzyme reaction
D3: Peak area of glucose contained in inhibitor as an impurity
The IC50 value was calculated from a dose-response curve of the compound (I) used as the inhibitor.

A short description of assay [5]: Oral glucose tolerance testing using sucrose, OLETF rats with diabetes. The format is in vivo. Particulars: oral co-administration with sucrose, FIG. 8. As for the experimental part:
as §1, §2

Assay [6] concerns the target T2, isomaltase (isomaltose as substrate) (Rattus norvegicus, UniProt P23739).
T2 construct: the supernatant was used as a purified enzyme; from tissue; host or cells: rat intestine (acetone powder, supernatant of homogenate)
Nature of the assay: Screening of enzyme inhibition, rat intestinal acetone powder crude enzyme, isomaltose as substrate. The assay is classed as biochemical. Particulars: 10 μL inhibitor solution (3.4 mg/mL diluted 100 times), five hours. As for the experimental part:
as §3

The test system of assay [7] is Maltase α-(1-4)glucosidase. The assay can be described thus: Maltase inhibition analysis by compound (I) (Table 2). The format is biochemical.

T2 sequence (P23739 1-1013 limits assumed): as the sequence (P23739 1-1013 limits assumed) above
T2 sequence (P23739 1014-1841 limits assumed): as the sequence (P23739 1014-1841 limits assumed) above

As usually defined, the IC50 is the concentration that gives 50% inhibition. Regarding `OCC1OC(CO)(OCC2OC(O)C(O)C(O)C2O)C(O)C1O` (centres unmarked) [compound (I), Maplebiose], the “changes with time of insulin” value in assay [1] and in assay [5] was “similar” throughout. Besides, the “plasma glucose value vs rats not administered with the compound (I)” value in assay [1] is recorded as “significantly lower”. Further, the Inhibition rate in assay [2] was determined as 12.3%; in assay [3] it was 9.4%; in assay [6], 3.3%. The “Peak response (Glc)” value in assay [4] (1 μg inhibitor) worked out at 18.2; in assay [4] (10 μg inhibitor), 17.2; in assay [4] (100 μg inhibitor) it was 23.1. Further, the “plasma glucose value relative to rats not administered with the compound (I)” value in assay [5] is “about 50%”. For the same compound, the “Inhibition (%)” value in assay [7] (1 μg inhibitor) came to 39.1%; in assay [7] (10 μg inhibitor), 49.4%; in assay [7] (100 μg inhibitor), 54.2%. Also, the half-maximal inhibitory concentration (IC50) in assay [7] (calculated using a straight line from concentrations and inhibition rates) is 1720 µM.
